# Key:
# Assay in all cases: KinomeScan profiling
# Format in all cases: binding
# [1] = target: T1, AXL (Homo sapiens, UniProt P30530); conditions: read-out: % control
# T1 construct: purchased KinomeScan®
# T1 sequence (P30530 26-894): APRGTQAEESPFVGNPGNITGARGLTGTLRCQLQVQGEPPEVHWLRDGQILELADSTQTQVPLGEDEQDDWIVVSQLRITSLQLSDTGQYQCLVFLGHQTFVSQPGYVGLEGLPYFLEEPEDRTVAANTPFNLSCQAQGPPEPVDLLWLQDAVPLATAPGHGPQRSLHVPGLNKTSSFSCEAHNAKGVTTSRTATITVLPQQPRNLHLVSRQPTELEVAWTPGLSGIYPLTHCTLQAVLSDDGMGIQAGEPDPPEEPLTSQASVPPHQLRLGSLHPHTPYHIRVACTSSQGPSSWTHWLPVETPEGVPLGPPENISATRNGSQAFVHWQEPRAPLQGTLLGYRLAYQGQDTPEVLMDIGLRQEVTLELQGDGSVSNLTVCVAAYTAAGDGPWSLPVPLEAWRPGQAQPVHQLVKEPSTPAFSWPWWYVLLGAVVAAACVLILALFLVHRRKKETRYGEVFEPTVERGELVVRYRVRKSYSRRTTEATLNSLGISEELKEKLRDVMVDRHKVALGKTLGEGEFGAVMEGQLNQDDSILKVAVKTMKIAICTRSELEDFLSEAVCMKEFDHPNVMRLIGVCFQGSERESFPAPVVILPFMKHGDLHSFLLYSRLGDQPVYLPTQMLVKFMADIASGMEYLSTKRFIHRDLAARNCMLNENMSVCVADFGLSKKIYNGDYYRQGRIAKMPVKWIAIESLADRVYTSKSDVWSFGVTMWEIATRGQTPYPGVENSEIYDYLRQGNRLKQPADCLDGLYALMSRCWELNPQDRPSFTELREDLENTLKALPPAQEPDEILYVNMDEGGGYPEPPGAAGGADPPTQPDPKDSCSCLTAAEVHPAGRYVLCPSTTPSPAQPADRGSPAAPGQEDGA
# Procedure, shortened: (§1)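 The panel spans 468 kinases, and each inventive compound was applied at 1 μM from DMSO. Lower % control means stronger binding; the activity cut-off is set at less than 35%.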
# [2] = target: CAMK2D (Homo sapiens, UniProt Q13557); conditions: read-out: % control
# Procedure, shortened: as §1
# [3] = target: CIT (Homo sapiens, UniProt O14578); conditions: read-out: % control
# Procedure, shortened: as §1
# [4] = target: T2, CSNK1A1L (Homo sapiens, UniProt Q8N752); conditions: read-out: % control
# T2 sequence (Q8N752 1-337): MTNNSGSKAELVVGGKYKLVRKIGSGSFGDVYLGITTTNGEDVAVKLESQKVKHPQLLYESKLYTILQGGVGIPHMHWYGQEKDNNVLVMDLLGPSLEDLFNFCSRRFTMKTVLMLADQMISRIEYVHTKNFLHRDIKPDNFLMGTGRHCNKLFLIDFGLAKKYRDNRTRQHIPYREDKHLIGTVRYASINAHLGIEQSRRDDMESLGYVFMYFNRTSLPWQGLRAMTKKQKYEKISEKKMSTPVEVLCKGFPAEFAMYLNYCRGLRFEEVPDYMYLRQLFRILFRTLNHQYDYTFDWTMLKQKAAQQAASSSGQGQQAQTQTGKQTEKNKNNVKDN
# Procedure, shortened: as §1
# [5] = target: DYRK1A (Homo sapiens, UniProt Q13627); conditions: read-out: % control
# Procedure, shortened: as §1
# [6] = target: FGFR3(G697C) (Homo sapiens, UniProt P22607, G697C); conditions: read-out: % control
# Procedure, shortened: as §1
# [7] = target: MELK (Homo sapiens, UniProt Q14680); conditions: read-out: % control
# Procedure, shortened: as §1
# [8] = target: T3, NEK11 (Homo sapiens, UniProt Q8NG66); conditions: NEK11, 1 μM; read-out: % control
# T3 sequence (Q8NG66 1-645): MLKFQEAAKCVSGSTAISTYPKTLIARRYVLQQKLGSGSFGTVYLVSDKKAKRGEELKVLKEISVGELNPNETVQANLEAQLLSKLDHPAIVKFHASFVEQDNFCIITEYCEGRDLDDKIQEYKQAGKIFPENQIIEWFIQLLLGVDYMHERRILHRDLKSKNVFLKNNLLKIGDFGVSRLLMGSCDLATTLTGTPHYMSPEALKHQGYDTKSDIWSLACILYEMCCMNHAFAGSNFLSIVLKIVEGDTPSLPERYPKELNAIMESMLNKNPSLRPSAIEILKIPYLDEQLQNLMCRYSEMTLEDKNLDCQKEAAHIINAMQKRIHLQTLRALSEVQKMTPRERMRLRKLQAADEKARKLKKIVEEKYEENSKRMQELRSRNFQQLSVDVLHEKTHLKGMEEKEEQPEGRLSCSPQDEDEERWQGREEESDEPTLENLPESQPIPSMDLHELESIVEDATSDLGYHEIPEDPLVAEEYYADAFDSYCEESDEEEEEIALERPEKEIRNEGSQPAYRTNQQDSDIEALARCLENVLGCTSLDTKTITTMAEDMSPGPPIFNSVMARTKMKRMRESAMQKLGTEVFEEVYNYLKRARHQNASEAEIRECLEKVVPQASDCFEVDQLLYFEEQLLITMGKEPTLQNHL
# Procedure, shortened: as §1
# [9] = target: RET(M918T) (Homo sapiens, UniProt P07949, M918T); conditions: read-out: % control
# Procedure, shortened: as §1
# [10] = target: T4, SRPK3 (Homo sapiens, UniProt Q9UPE1); conditions: SRPK3, 1 μM; read-out: % control
# T4 construct: purchased KinomeScan® (panel service)
# Procedure, shortened: as §1
# [11] = target: T5, STK39 (Homo sapiens, UniProt Q9UEW8); conditions: STK39, 1 μM; read-out: % control
# T5 construct: purchased KinomeScan® (panel service)
# Procedure, shortened: as §1
# CAMK2D, sequence (Q13557 whole entry): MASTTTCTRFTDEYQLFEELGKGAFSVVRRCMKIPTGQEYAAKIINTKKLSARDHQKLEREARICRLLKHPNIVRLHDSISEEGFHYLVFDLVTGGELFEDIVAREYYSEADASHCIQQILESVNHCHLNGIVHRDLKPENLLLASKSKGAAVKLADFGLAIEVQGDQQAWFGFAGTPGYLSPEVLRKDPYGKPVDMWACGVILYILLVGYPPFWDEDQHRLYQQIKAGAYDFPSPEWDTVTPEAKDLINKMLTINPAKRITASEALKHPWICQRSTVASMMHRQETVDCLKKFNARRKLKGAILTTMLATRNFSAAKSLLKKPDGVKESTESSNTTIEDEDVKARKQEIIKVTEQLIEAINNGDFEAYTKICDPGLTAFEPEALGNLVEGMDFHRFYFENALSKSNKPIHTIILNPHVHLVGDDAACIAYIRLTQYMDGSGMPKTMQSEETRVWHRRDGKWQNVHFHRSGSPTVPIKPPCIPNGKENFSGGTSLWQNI
# FGFR3(G697C), sequence (P22607 23-806 G697C): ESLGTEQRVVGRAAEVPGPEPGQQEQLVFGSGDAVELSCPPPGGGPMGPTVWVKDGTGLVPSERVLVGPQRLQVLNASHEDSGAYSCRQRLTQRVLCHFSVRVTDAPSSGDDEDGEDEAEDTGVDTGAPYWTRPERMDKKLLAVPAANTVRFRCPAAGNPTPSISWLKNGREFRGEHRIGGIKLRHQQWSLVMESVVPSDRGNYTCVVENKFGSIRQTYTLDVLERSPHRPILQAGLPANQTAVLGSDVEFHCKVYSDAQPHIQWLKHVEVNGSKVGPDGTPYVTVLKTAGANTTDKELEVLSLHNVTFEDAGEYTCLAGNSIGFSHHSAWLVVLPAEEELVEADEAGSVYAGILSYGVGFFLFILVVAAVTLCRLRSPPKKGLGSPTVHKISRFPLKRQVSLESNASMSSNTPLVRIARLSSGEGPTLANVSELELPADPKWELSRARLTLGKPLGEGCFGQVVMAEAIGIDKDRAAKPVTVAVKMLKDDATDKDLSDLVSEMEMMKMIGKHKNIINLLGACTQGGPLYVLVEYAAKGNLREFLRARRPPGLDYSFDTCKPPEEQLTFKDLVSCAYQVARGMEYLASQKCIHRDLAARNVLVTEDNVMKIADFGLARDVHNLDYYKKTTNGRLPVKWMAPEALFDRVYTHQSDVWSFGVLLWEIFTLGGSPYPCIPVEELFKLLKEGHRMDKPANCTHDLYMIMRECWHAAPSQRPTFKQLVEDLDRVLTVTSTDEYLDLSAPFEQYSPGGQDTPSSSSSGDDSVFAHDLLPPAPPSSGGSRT
# CIT, sequence (O14578 whole entry): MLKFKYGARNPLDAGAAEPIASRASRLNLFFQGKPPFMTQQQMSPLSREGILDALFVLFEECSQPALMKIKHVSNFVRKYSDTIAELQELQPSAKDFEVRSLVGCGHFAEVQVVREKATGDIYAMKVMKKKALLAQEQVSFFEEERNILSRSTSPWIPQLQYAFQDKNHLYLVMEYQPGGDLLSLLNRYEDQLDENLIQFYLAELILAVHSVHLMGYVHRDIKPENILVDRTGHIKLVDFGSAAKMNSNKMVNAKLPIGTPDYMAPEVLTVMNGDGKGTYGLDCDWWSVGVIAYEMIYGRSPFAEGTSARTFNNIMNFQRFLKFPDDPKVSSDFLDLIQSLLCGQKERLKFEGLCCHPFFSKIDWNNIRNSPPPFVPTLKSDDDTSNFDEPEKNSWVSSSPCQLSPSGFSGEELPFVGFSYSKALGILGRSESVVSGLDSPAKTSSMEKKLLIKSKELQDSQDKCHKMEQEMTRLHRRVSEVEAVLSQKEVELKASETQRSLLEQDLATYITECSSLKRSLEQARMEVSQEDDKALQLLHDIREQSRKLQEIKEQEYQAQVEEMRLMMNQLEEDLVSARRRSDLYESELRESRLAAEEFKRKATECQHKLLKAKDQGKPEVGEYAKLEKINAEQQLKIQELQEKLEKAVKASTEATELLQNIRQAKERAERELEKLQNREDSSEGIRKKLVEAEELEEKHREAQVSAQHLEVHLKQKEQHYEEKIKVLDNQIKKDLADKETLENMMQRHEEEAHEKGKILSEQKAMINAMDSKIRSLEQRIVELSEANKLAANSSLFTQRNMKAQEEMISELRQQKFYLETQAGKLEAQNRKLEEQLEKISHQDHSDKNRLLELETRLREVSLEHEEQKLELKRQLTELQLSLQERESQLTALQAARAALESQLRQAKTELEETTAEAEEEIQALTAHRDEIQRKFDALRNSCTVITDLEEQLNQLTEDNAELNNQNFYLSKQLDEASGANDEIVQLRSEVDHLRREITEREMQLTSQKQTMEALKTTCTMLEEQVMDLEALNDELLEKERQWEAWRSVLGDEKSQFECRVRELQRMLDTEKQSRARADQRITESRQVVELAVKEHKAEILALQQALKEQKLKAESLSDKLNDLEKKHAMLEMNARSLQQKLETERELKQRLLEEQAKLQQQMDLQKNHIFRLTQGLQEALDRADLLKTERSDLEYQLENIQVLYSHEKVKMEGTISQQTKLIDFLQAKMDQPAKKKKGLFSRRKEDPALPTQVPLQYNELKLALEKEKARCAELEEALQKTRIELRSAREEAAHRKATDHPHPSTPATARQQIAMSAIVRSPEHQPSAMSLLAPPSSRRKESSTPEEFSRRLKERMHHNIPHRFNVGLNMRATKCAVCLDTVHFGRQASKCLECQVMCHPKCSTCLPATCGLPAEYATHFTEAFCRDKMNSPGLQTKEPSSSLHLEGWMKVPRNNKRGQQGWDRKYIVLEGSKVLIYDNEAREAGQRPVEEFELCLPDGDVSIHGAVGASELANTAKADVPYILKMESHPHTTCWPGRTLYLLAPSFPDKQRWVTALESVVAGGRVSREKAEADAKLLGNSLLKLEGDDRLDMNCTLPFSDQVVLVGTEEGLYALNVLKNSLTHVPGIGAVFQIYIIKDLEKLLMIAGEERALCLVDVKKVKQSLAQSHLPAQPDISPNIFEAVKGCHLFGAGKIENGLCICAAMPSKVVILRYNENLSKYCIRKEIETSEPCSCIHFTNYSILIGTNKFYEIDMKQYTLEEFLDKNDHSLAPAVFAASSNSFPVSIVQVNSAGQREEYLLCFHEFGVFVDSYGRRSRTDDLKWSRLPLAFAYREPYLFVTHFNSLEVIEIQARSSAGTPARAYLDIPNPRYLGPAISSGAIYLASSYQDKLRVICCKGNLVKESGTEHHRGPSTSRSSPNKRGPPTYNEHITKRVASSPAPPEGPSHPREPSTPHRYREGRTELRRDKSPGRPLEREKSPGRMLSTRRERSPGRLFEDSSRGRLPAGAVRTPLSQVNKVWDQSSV
# T4 sequence (Q9UPE1 whole entry): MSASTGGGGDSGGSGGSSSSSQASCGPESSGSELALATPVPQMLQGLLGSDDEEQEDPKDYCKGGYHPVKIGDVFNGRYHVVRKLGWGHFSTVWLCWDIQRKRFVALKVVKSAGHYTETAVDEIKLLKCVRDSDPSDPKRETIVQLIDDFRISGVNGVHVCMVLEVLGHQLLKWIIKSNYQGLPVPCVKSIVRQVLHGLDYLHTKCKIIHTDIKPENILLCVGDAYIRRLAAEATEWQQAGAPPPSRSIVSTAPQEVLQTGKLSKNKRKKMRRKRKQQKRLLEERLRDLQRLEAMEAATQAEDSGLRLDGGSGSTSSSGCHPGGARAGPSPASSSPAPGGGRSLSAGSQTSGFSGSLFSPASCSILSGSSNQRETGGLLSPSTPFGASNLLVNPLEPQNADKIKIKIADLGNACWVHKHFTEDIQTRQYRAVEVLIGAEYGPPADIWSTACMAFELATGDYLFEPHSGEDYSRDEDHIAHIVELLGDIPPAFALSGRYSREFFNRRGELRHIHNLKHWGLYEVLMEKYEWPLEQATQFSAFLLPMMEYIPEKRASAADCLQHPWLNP
# RET(M918T), sequence (P07949 29-1114 M918T): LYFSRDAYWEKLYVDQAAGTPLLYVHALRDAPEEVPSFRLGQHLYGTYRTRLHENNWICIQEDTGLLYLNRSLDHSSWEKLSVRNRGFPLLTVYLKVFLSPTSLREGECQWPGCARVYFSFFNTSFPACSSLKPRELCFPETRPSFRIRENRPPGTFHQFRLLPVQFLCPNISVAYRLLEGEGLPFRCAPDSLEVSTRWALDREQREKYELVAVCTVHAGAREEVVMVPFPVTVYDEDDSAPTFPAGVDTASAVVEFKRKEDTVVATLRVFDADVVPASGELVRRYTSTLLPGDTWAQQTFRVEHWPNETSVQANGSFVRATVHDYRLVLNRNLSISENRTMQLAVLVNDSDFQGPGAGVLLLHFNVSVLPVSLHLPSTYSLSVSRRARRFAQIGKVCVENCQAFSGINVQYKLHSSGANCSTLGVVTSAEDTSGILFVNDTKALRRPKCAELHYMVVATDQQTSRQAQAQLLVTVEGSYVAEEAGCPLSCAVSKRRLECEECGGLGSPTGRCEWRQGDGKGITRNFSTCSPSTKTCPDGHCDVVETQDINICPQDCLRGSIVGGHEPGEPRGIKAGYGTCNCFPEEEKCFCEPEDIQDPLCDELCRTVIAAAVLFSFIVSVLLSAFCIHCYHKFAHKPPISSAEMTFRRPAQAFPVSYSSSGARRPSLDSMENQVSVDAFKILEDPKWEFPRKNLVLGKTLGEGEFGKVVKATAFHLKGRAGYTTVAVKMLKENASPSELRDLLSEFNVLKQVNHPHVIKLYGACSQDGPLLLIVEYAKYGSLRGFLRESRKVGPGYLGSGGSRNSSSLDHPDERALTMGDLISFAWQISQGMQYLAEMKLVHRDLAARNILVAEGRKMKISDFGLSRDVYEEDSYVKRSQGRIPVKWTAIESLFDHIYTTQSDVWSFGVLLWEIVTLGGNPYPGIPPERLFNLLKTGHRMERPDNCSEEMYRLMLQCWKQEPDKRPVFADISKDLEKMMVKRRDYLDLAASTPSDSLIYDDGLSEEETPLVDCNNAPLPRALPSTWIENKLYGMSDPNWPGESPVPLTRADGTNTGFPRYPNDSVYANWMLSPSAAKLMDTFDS
Structure (SMILES),remaining binding at 1 µM [1],remaining binding at 1 µM [2],remaining binding at 1 µM [3],remaining binding at 1 µM [4],remaining binding at 1 µM [5],remaining binding at 1 µM [6],remaining binding at 1 µM [7],remaining binding at 1 µM [8],remaining binding at 1 µM [9],remaining binding at 1 µM [10],remaining binding at 1 µM [11]
"CNc1c(-c2ccc(C(=O)N3CCC(N4CCOCC4)CC3)cc2)cnc2[nH]cc(Cl)c12 [Compound 96, (4-(3-chloro-4-(methylamino)-1H-pyrrolo[2,3-b]pyridin-5-yl)phenyl)(4-morpholinopiperidin-1-yl)methanone]",33%,100%,11%,48%,69%,55%,16%,96%,72%,17%,9.7%
"O=C(c1ccc(-c2cnc3[nH]cc(Cl)c3c2NC2CCCC2)cc1)N1CCC(N2CCOCC2)CC1 [Compound 101, (4-(3-chloro-4-(cyclopentylamino)-1H-pyrrolo[2,3-b]pyridin-5-yl)phenyl)(4-morpholinopiperidin-1-yl)methanone]",40%,93%,21%,100%,4%,74%,30%,100%,95%,9.9%,80%
"CNc1c(-c2cnn([C@H]3CCN(C(C)=O)C[C@@H]3F)c2)cnc2[nH]cc(Cl)c12 [Compound 77, 1-((3S,4S)-4-(4-(3-chloro-4-(methylamino)-1H-pyrrolo[2,3-b]pyridin-5-yl)-1H-pyrazol-1-yl)-3-fluoropiperidin-1-yl)ethan-1-one]",8.5%,100%,6.8%,79%,58%,51%,20%,97%,33%,16%,16%

# Source: patent US12275731B2, “Azaindole inhibitors of wild-type and mutant forms of LRRK2” (DANA-FARBER CANCER INSTITUTE, INC., priority 2018, dated 2025)
